Source: patent US20120329767A1, “Methods and Compositions for Treating Cancer” (priority 2010, published 2012)
Read-outs that look alike come from different tables or passages of the source.

What was measured:
[1] = tested on: CHOP protein; assay: Expression of the CHOP protein, Western blot; type: cell-based, human; conditions: A172 tumour cells treated 6 hours at 5 μM and 10 μM, versus reference compound
From the text: (§1) To determine via which mechanisms of action compounds 8 and 9 could lead to slowing of cell proliferation or to cell death, the activation of two specific markers, the expression of the CHOP protein and phosphorylation of the histone H2AX on the serine site […] were monitored. The CHOP protein has pro-apoptotic properties (induction of cell death). Phosphorylation of the H2AX histone is a marker of DNA damage which leads to activation of p53, a protein having pro-apoptotic properties or the property of slowing cell proliferation.
(§2) In these experiments, the tumour cells A172 were treated for 6 hours with the compounds at two concentrations (5 μM and 10 μM). After the 6 hour treatment time, the cells were lysed and […] of soluble proteins were separated on 12% polyacrylamide gel. After migration, the proteins were transferred onto nitrocellulose using the Western blot technique. The proteins CHOP and H2AX were then detected using specific primary antibodies, themselves recognized by corresponding secondary antibodies whose peroxidase activity was identified using an ECL kit.

[2] = tested on: Fadu; assay: MTT test on Fadu head & neck cancer line; type: cell-based; conditions: MTT method
[3] = tested on: histone H2AX; assay: Phosphorylation of histone H2AX, Western blot; type: cell-based, human; conditions: A172 tumour cells treated 6 hours at 5 μM and 10 μM, versus reference compound
From the text: as §1, §2

[4] = tested on: melanoma model F10B16 implanted in Black-6 mice; assay: Tumour growth in in vivo melanoma model F10B16; conditions: F10B16 melanoma in Black-6 mice, twice a week at 7.5 μmol/kg
From the text: To determine the anti-cancer potential of these molecules, we analyzed the effects of compound 8 and compound 9 on tumour growth, using the in vivo melanoma model F10B16 implanted in Black-6 mice. […] The chronic treatments (twice a week at 7.5 μmol/kg) in mice having tumours led to a reduction in tumour growth. This reduction in tumour growth (treated tumour volume/non-treated tumour volume: T/C) was of the order of 80% for compound 8 and 60% for compound 9 (see Table 4 and FIGS. 6 and 7).
In these experiments, the […] cells (200 000 cells) were implanted sub-cutaneously in Black-6 mice aged 8 weeks. Groups of 6 mice per condition were formed. The treatments were started when the tumours were palpable with a volume of the order of 100 mm^3.

[5] = tested on: HCT-116 cells; assay: MTT test on HCT116 colon cancer cells; type: cell-based, human; conditions: MTT method, Table 2
Procedure: A human glioblastoma line (A172) and a colon cancer line (HCT116) were used to test the cytostatic effects of the compounds according to the invention. Cisplatin was chosen as cytotoxic agent for comparison. As first approach, a MTT test was used to measure the activity of a mitochondrial enzyme which gives an estimation of the number of cells.
The experiments were performed under a vertical laminar flow hood. The cell growth medium was composed of DMEM (Dulbecco's Modified Eagle's Medium), HEPES, 10% FCS (Foetal Calf Serum), 5% PS (Penicillin, Streptomycin) and was stored at +4° C., and PBS (Phosphate Buffer Saline, pH=7.4). […] MTT (4,5-dimethylthiazol-2-diphenyltetrazolium bromide) is a yellow solid produced by Aldrich. […]
(§3) When they were sufficiently numerous (70% confluence) they were washed in PBS at ambient temperature then mixed with 1.5 mL of Trypsin-EDTA to detach them from the Petri dish. […] After 48 hours, the medium was replaced by a MTT solution at 37° in the medium, which was placed in the incubator for at least one hour or until violet crystals derived from the complexing of MTT were formed quantitatively at the bottom of each well. […] The optical density of the solutions obtained was read off. […]
The IC50 values (μM) were determined for each of the lines and compared with the values obtained for a reference ruthenium derived compound.

[6] = tested on: 3LL; assay: MTT test on 3LL lung cancer line; type: cell-based; conditions: MTT method
[7] = tested on: Black-6 mice; conditions: Black-6 mice aged 8 weeks, single dose, intraperitoneal, followed up over 15 days
From the text: As comparison, the acute toxicity of the above-described reference compound is given.
In this experiment, the injections were given via intraperitoneal route with groups of 5 animals per dose. The weight and survival of the animals were followed up over 15 days.

[8] = tested on: N2A; assay: MTT test on N2A neuroblastoma line; type: cell-based; conditions: MTT method
[9] = tested on: A-172 cells; assay: MTT test on A172 glioblastoma cells; type: cell-based, human; conditions: 48 h treatment, A-172 glioblastoma cells, Table 1
Procedure: Cisplatin was chosen as cytotoxic agent for comparison. As first approach, a MTT test was used to measure the activity of a mitochondrial enzyme which gives an estimation of the number of cells.
The experiments were performed under a vertical laminar flow hood. The cell growth medium was composed of DMEM (Dulbecco's Modified Eagle's Medium), HEPES, 10% FCS (Foetal Calf Serum), 5% PS (Penicillin, Streptomycin) and was stored at +4° C., and PBS (Phosphate Buffer Saline, pH=7.4). […] MTT (4,5-dimethylthiazol-2-diphenyltetrazolium bromide) is a yellow solid produced by Aldrich. It was placed in sterile aqueous solution at a concentration of 5 mg/ml and stored at +4° C. It was diluted to 10% in the cell culture medium when used as staining agent of the living cells.
as §3

[10] = tested on: U87; assay: MTT test on U87 glioblastoma line; type: cell-based; conditions: MTT method
[11] = tested on: A2780; assay: MTT test on A2780 ovarian cancer line; type: cell-based; conditions: MTT method
[12] = tested on: HCT116 cells; assay: Cell cycle profile by FACS after propidium iodide staining; type: cell-based, human; conditions: HCT116 cells treated 48 h at 1 μM and 5 μM
From the text: The effect of compounds 8 and 9 on the cell profile was studied using the FACS technique (Fluorescence Activated Cell Sorter i.e. the association of a flow cytometer and a cell sorter) after staining the cells with propidium iodide to visualize the quantity of cell DNA. These analyses allow visualization of the cell cycle phase at which the cells accumulate subsequent to treatment with the compounds of the invention, and possibly whether cell death by apoptosis has been induced.
In this experiment, the HCT116 cells were treated for 48 h at the indicated doses (1 μM and 5 μM). After a treatment time of 48 h, the cells were washed three times with PBS (phosphate buffer saline) and fixed in 90% ethanol. The cells were then stained with a solution of propidium iodide/RNase. The stained cells (10 000 per sample) were then counted using a FACScan flow cytometer and CellQuest software (Becton Dickinson) to determine the DNA content and the profile of the cell cycle.

[13] = tested on: Katto III; assay: MTT test on Katto III pancreatic cancer line; type: cell-based; conditions: MTT method, Katto III gastric cancer

CC#[N+][Ru-4]123([c]4c(cc(C(=O)OC)cc4-c4cccc[n+]41)-c1cccc[n+]12)[n+]1cccc2ccc4ccc[n+]3c4c21.F[P-](F)(F)(F)(F)F [Compound (8)]
Induction of expression of the CHOP protein [1]: more efficient
IC50 [2]: 1000 to 2000 nM
Phosphorylation of the histone H2AX on the serine site 137 [3]: more efficient
T/C (reduction in tumour growth; treated tumour volume/non-treated tumour volume) ([4]; listed as Compound 8): 81%
T/C (reduction in tumour growth; treated tumour volume/non-treated tumour volume) ([4]; listed as compound 8): ~80%
IC50 [5]: 1000 to 2000 nM
IC50 [6]: 1000 to 2000 nM
LD50 [7]: 22.5 µmol/kg
IC50 [8]: 1000 to 2000 nM
IC50 [9]: 1500 to 1900 nM
IC50 [10]: 1000 to 2500 nM
IC50 [11]: 1000 to 2000 nM
Profile of the cell cycle [12]: induce a halt in the cell cycle at phase G1 or cell death
IC50 [13]: 1000 to 2000 nM

CC#[N+][Ru-4]123([c]4c(cc(C)cc4-c4cccc[n+]41)-c1cccc[n+]12)[n+]1cccc2ccc4ccc[n+]3c4c21.F[P-](F)(F)(F)(F)F [Compound (9)]
Induction of expression of the CHOP protein [1]: more efficient
IC50 [2]: 100 to 1000 nM
Phosphorylation of the histone H2AX on the serine site 137 [3]: more efficient
T/C (reduction in tumour growth; treated tumour volume/non-treated tumour volume) ([4]; listed as Compound 9): 58%
T/C (reduction in tumour growth; treated tumour volume/non-treated tumour volume) ([4]; listed as compound 9): ~60%
IC50 [5]: 100 to 1000 nM
IC50 [6]: 100 to 1000 nM
LD50 ([7]; listed as Compound 9): >60 µmol/kg
LD50 ([7]; listed as compound 9): > 60 µmol/kg
IC50 [8]: 100 to 1000 nM
IC50 [9]: 600 to 1000 nM
IC50 [10]: 1000 to 2000 nM
IC50 [11]: 100 to 1000 nM
Profile of the cell cycle [12]: induce a halt in the cell cycle at phase G1 or cell death
IC50 [13]: 100 to 1000 nM
